Laboratory results reported in PubChem BioAssay (NCI).
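96-well plates; 48 h exposure; 5 concentrations. Endpoints by linear interpolation between flanking doses. Not reached: highest tested concentration assigned. At the TGI there is no net growth.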

Experiments:
Test in all cases: inhibition of tumour cell growth, NCI panel, 48 h
786-0 renal = tested on: 786-0 renal
A498 renal = tested on: A498 renal
ACHN renal = tested on: ACHN renal
BT-549 breast = tested on: BT-549 breast
CAKI-1 renal = tested on: CAKI-1 renal
CCRF-CEM leukemia = tested on: CCRF-CEM leukemia
COLO 205 colon = tested on: COLO 205 colon
DU-145 prostate = tested on: DU-145 prostate
EKVX NSCLC = tested on: EKVX NSCLC
HCC-2998 colon = tested on: HCC-2998 colon
HCT-116 colon = tested on: HCT-116 colon
HCT-15 colon = tested on: HCT-15 colon
HL-60(TB) leukemia = tested on: HL-60(TB) leukemia
HOP-62 NSCLC = tested on: HOP-62 NSCLC
HOP-92 NSCLC = tested on: HOP-92 NSCLC
HS 578T breast = tested on: HS 578T breast
HT29 colon = tested on: HT29 colon
IGROV1 ovarian = tested on: IGROV1 ovarian
K-562 leukemia = tested on: K-562 leukemia
KM12 colon = tested on: KM12 colon
LOX IMVI melanoma = tested on: LOX IMVI melanoma
M14 melanoma = tested on: M14 melanoma
MALME-3M melanoma = tested on: MALME-3M melanoma
MCF7 breast = tested on: MCF7 breast
MDA-MB-231 breast = tested on: MDA-MB-231 breast
MDA-MB-435 = tested on: MDA-MB-435
MDA-N = tested on: MDA-N
MOLT-4 leukemia = tested on: MOLT-4 leukemia
NCI-H226 lung = tested on: NCI-H226 lung
NCI-H23 lung = tested on: NCI-H23 lung
NCI-H460 lung = tested on: NCI-H460 lung
NCI-H522 lung = tested on: NCI-H522 lung
NCI/ADR-RES ovarian = tested on: NCI/ADR-RES ovarian
OVCAR-3 ovarian = tested on: OVCAR-3 ovarian
OVCAR-4 ovarian = tested on: OVCAR-4 ovarian
OVCAR-5 ovarian = tested on: OVCAR-5 ovarian
OVCAR-8 ovarian = tested on: OVCAR-8 ovarian
PC-3 prostate = tested on: PC-3 prostate
RPMI-8226 leukemia = tested on: RPMI-8226 leukemia
RXF 393 renal = tested on: RXF 393 renal
SF-268 CNS = tested on: SF-268 CNS
SF-295 CNS = tested on: SF-295 CNS
SF-539 CNS = tested on: SF-539 CNS
SK-MEL-2 melanoma = tested on: SK-MEL-2 melanoma
SK-MEL-28 melanoma = tested on: SK-MEL-28 melanoma
SK-OV-3 ovarian = tested on: SK-OV-3 ovarian
SN12C renal = tested on: SN12C renal
SNB-19 CNS = tested on: SNB-19 CNS
SNB-75 CNS = tested on: SNB-75 CNS
SW-620 colon = tested on: SW-620 colon
T-47D breast = tested on: T-47D breast
TK-10 renal = tested on: TK-10 renal
U251 CNS = tested on: U251 CNS
UACC-257 melanoma = tested on: UACC-257 melanoma
UACC-62 melanoma = tested on: UACC-62 melanoma
A549 NSCLC = tested on: A549 NSCLC
SK-MEL-5 melanoma = tested on: SK-MEL-5 melanoma
SR leukemia = tested on: SR leukemia
UO-31 renal = tested on: UO-31 renal

Molecule `O=c1cc(N2CCOCC2)[nH]c(=O)n1-c1cccc(Cl)c1` has a TGI (786-0 renal) greater than 100 µM, a TGI (A498 renal) greater than 100 µM and a TGI (ACHN renal) greater than 100 µM. The TGI (BT-549 breast) was greater than 100 µM, the TGI (CAKI-1 renal) was greater than 100 µM and the TGI (CCRF-CEM leukemia) was greater than 100 µM. It also gave a TGI (COLO 205 colon) greater than 100 µM, a TGI (DU-145 prostate) greater than 100 µM and a TGI (EKVX NSCLC) greater than 100 µM. For the same molecule, the TGI (HCC-2998 colon) was greater than 100 µM, the TGI (HCT-116 colon) was greater than 100 µM and the TGI (HCT-15 colon) was greater than 100 µM. The TGI (HL-60(TB) leukemia) was greater than 100 µM, the TGI (HOP-62 NSCLC) was greater than 100 µM and the TGI (HOP-92 NSCLC) was greater than 100 µM. The TGI (HS 578T breast) was greater than 100 µM, the TGI (HT29 colon) was greater than 100 µM and the TGI (IGROV1 ovarian) was greater than 100 µM. For the same molecule, the TGI (K-562 leukemia) was greater than 100 µM, the TGI (KM12 colon) was greater than 100 µM and the TGI (LOX IMVI melanoma) was greater than 100 µM. For the same molecule, the TGI (M14 melanoma) was greater than 100 µM, the TGI (MALME-3M melanoma) was greater than 100 µM and the TGI (MCF7 breast) was greater than 100 µM. It also gave a TGI (MDA-MB-231 breast) greater than 100 µM, a TGI (MDA-MB-435) greater than 100 µM and a TGI (MDA-N) greater than 100 µM. It also gave a TGI (MOLT-4 leukemia) greater than 100 µM, a TGI (NCI-H226 lung) greater than 100 µM and a TGI (NCI-H23 lung) greater than 100 µM. For the same molecule, the TGI (NCI-H460 lung) was greater than 100 µM, the TGI (NCI-H522 lung) was greater than 100 µM and the TGI (NCI/ADR-RES ovarian) was greater than 100 µM. The TGI (OVCAR-3 ovarian) was greater than 100 µM, the TGI (OVCAR-4 ovarian) was greater than 100 µM and the TGI (OVCAR-5 ovarian) was greater than 100 µM. For the same molecule, the TGI (OVCAR-8 ovarian) was greater than 100 µM, the TGI (PC-3 prostate) was greater than 100 µM and the TGI (RPMI-8226 leukemia) was greater than 100 µM. For the same molecule, the TGI (RXF 393 renal) was greater than 100 µM, the TGI (SF-268 CNS) was greater than 100 µM and the TGI (SF-295 CNS) was greater than 100 µM. The TGI (SF-539 CNS) was greater than 100 µM, the TGI (SK-MEL-2 melanoma) was greater than 100 µM and the TGI (SK-MEL-28 melanoma) was greater than 100 µM. For the same molecule, the TGI (SK-OV-3 ovarian) was greater than 100 µM, the TGI (SN12C renal) was greater than 100 µM and the TGI (SNB-19 CNS) was greater than 100 µM. It also gave a TGI (SNB-75 CNS) greater than 100 µM, a TGI (SW-620 colon) greater than 100 µM and a TGI (T-47D breast) greater than 100 µM. The TGI (TK-10 renal) was greater than 100 µM, the TGI (U251 CNS) was greater than 100 µM and the TGI (UACC-257 melanoma) was greater than 100 µM. For the same molecule, the TGI (UACC-62 melanoma) was greater than 100 µM.
For `COc1ccc2c(N=[N+]=[N-])c(-c3ccccc3)c(=O)oc2c1`, the TGI (786-0 renal) was greater than 100 µM, the TGI (A498 renal) was greater than 100 µM and the TGI (A549 NSCLC) was greater than 100 µM. The TGI (ACHN renal) was greater than 100 µM, the TGI (BT-549 breast) was greater than 100 µM and the TGI (CAKI-1 renal) was greater than 100 µM. It also gave a TGI (CCRF-CEM leukemia) greater than 100 µM, a TGI (COLO 205 colon) greater than 100 µM and a TGI (DU-145 prostate) greater than 100 µM. For the same molecule, the TGI (EKVX NSCLC) was greater than 100 µM, the TGI (HCC-2998 colon) was greater than 100 µM and the TGI (HCT-116 colon) was greater than 100 µM. The TGI (HCT-15 colon) was greater than 100 µM, the TGI (HL-60(TB) leukemia) was 60.3 µM and the TGI (HOP-62 NSCLC) was greater than 100 µM. It also gave a TGI (HS 578T breast) greater than 100 µM, a TGI (HT29 colon) greater than 100 µM and a TGI (IGROV1 ovarian) greater than 100 µM. The TGI (K-562 leukemia) was greater than 100 µM, the TGI (KM12 colon) was greater than 100 µM and the TGI (LOX IMVI melanoma) was greater than 100 µM. It also gave a TGI (M14 melanoma) greater than 100 µM, a TGI (MALME-3M melanoma) greater than 100 µM and a TGI (MCF7 breast) greater than 100 µM. It also gave a TGI (MDA-MB-231 breast) greater than 100 µM, a TGI (MDA-MB-435) greater than 100 µM and a TGI (MDA-N) greater than 100 µM. The TGI (MOLT-4 leukemia) was 73.1 µM, the TGI (NCI-H23 lung) was greater than 100 µM and the TGI (NCI-H460 lung) was greater than 100 µM. For the same molecule, the TGI (NCI-H522 lung) was greater than 100 µM, the TGI (OVCAR-8 ovarian) was greater than 100 µM and the TGI (PC-3 prostate) was greater than 100 µM. The TGI (RPMI-8226 leukemia) was greater than 100 µM, the TGI (SF-268 CNS) was greater than 100 µM and the TGI (SF-295 CNS) was greater than 100 µM. It also gave a TGI (SF-539 CNS) greater than 100 µM, a TGI (SK-MEL-28 melanoma) greater than 100 µM and a TGI (SK-MEL-5 melanoma) of 77.3 µM. The TGI (SK-OV-3 ovarian) was greater than 100 µM, the TGI (SN12C renal) was greater than 100 µM and the TGI (SNB-75 CNS) was greater than 100 µM. The TGI (SR leukemia) was 67.1 µM, the TGI (SW-620 colon) was greater than 100 µM and the TGI (T-47D breast) was greater than 100 µM. It also gave a TGI (TK-10 renal) greater than 100 µM, a TGI (UACC-257 melanoma) of 85.6 µM and a TGI (UACC-62 melanoma) greater than 100 µM.
Work on `CN1C(=O)C(O)CC1c1ccc(C(F)(F)F)cc1` (stereo unspecified) yielded a TGI (786-0 renal) greater than 100 µM, a TGI (A498 renal) greater than 100 µM and a TGI (A549 NSCLC) greater than 100 µM. It also gave a TGI (ACHN renal) greater than 100 µM, a TGI (BT-549 breast) greater than 100 µM and a TGI (CAKI-1 renal) greater than 100 µM. For the same molecule, the TGI (CCRF-CEM leukemia) was greater than 100 µM, the TGI (COLO 205 colon) was greater than 100 µM and the TGI (DU-145 prostate) was greater than 100 µM. It also gave a TGI (EKVX NSCLC) greater than 100 µM, a TGI (HCC-2998 colon) greater than 100 µM and a TGI (HCT-116 colon) greater than 100 µM. The TGI (HCT-15 colon) was greater than 100 µM, the TGI (HL-60(TB) leukemia) was greater than 100 µM and the TGI (HOP-62 NSCLC) was greater than 100 µM. It also gave a TGI (HOP-92 NSCLC) greater than 100 µM, a TGI (HS 578T breast) greater than 100 µM and a TGI (HT29 colon) greater than 100 µM. It also gave a TGI (IGROV1 ovarian) greater than 100 µM, a TGI (K-562 leukemia) greater than 100 µM and a TGI (KM12 colon) greater than 100 µM. The TGI (LOX IMVI melanoma) was greater than 100 µM, the TGI (M14 melanoma) was greater than 100 µM and the TGI (MALME-3M melanoma) was greater than 100 µM. The TGI (MCF7 breast) was greater than 100 µM, the TGI (MDA-MB-231 breast) was greater than 100 µM and the TGI (MDA-MB-435) was greater than 100 µM. The TGI (MDA-N) was greater than 100 µM, the TGI (MOLT-4 leukemia) was greater than 100 µM and the TGI (NCI-H226 lung) was greater than 100 µM. The TGI (NCI-H23 lung) was greater than 100 µM, the TGI (NCI-H460 lung) was greater than 100 µM and the TGI (NCI-H522 lung) was greater than 100 µM. It also gave a TGI (NCI/ADR-RES ovarian) greater than 100 µM, a TGI (OVCAR-3 ovarian) greater than 100 µM and a TGI (OVCAR-4 ovarian) greater than 100 µM. It also gave a TGI (OVCAR-5 ovarian) greater than 100 µM, a TGI (OVCAR-8 ovarian) greater than 100 µM and a TGI (PC-3 prostate) greater than 100 µM. The TGI (RPMI-8226 leukemia) was greater than 100 µM, the TGI (RXF 393 renal) was greater than 100 µM and the TGI (SF-268 CNS) was greater than 100 µM. For the same molecule, the TGI (SF-295 CNS) was greater than 100 µM, the TGI (SF-539 CNS) was greater than 100 µM and the TGI (SK-MEL-2 melanoma) was greater than 100 µM. It also gave a TGI (SK-MEL-28 melanoma) greater than 100 µM, a TGI (SK-MEL-5 melanoma) greater than 100 µM and a TGI (SK-OV-3 ovarian) greater than 100 µM. The TGI (SN12C renal) was greater than 100 µM, the TGI (SNB-19 CNS) was greater than 100 µM and the TGI (SNB-75 CNS) was greater than 100 µM. It also gave a TGI (SW-620 colon) greater than 100 µM, a TGI (T-47D breast) greater than 100 µM and a TGI (TK-10 renal) greater than 100 µM. For the same molecule, the TGI (U251 CNS) was greater than 100 µM, the TGI (UACC-257 melanoma) was greater than 100 µM and the TGI (UACC-62 melanoma) was greater than 100 µM. It also gave a TGI (UO-31 renal) greater than 100 µM.
